{
  "source": "patent US6900219B2",
  "about": "“ABCA-1 elevating compounds” (CV Therapeutics, Inc., priority 2002, dated 2005)",
  "data": [
    {"tested_on": "ABCA-1 gene", "test": "compounds tested and found to elevate cellular expression of the ABCA-1 gene (Examples 1-6; test not named)", "format": "cell-based", "protocol": "Activity testing is conducted as described in those patents and patent applications referenced above, and in the Examples below, and by methods apparent to one skilled in the art.", "values": [
      {"compound": "O=C(NC1=NCCS1)c1ccccc1F", "note": "[(2-fluorophenyl)-N-(1,3-thiazolin-2-yl)carboxamide]", "cellular expression of the ABCA-1 gene": "elevate cellular expression of the ABCA-1 gene"},
      {"compound": "O=C1CSC(NC(=O)c2ccccc2)=N1", "note": "[phenyl-N-(4-oxo(1,3-thiazolin-2-yl))carboxamide]", "cellular expression of the ABCA-1 gene": "elevate cellular expression of the ABCA-1 gene"},
      {"compound": "COc1cccc(Nc2nc3ccccc3s2)c1", "note": "[benzothiazol-2-yl-(3-methoxyphenyl)amine]", "cellular expression of the ABCA-1 gene": "elevate cellular expression of the ABCA-1 gene"},
      {"compound": "Cc1ccc(NC(=O)Oc2ccc(C3=NCCS3)cc2)cc1", "note": "[N-(4-methylphenyl)(4-(1,3-thiazolin-2-yl)phenoxy)carboxamide]", "cellular expression of the ABCA-1 gene": "elevate cellular expression of the ABCA-1 gene"},
      {"compound": "O=C(Nc1ccc(Cl)c(Cl)c1)Nc1ccc2c(c1)OCCO2", "note": "[N-(2H,3H-benzo[e]1,4-dioxin-6-yl)[(3,4-dichlorophenyl)amino]carboxamide]", "cellular expression of the ABCA-1 gene": "elevate cellular expression of the ABCA-1 gene"},
      {"compound": "N#Cc1ccc(C(=O)Nc2nc3c(Cl)cccc3s2)cc1", "note": "[N-(4-chlorobenzothiazol-2-yl)(4-cyanophenyl)carboxamide]", "cellular expression of the ABCA-1 gene": "elevate cellular expression of the ABCA-1 gene"},
      {"compound": "CCc1ccc(C(=O)NCCN(C(=O)Nc2ccc([N+](=O)[O-])cc2)c2ccccc2)cc1", "note": "[(4-ethylphenyl)-N-(2-{[N-(4-nitrophenyl)carbamoyl]phenylamino}ethyl)carboxamide]", "cellular expression of the ABCA-1 gene": "elevate cellular expression of the ABCA-1 gene"},
      {"compound": "CCN(CCCN(CC)c1nc2cc(C(=O)Nc3ccc(OC)cc3)ccc2o1)C(=O)c1cccc(F)c1C", "note": "[[2-(ethyl{3-[N-ethyl(3-fluoro-2-methylphenyl)carbonylamino]propyl}amino)benzoxazol-5-yl]-N-(4-methoxyphenyl)carboxamide]", "cellular expression of the ABCA-1 gene": "elevate cellular expression of the ABCA-1 gene"},
      {"compound": "CCn1c2ccccc2c2cc(CN(CCc3ccccc3)C(=O)c3ccc4c(c3)OCO4)ccc21", "note": "[2H-benzo[d]1,3-dioxolen-5-yl-N-[(9-ethylcarbazol-3-yl)methyl]-N-(2-phenylethyl)carboxamide]", "cellular expression of the ABCA-1 gene": "elevate cellular expression of the ABCA-1 gene"},
      {"compound": "O=C(CCC1CCCC1)Nc1ccc2c(c1)CCC2", "note": "[3-cyclopentyl-N-indan-5-ylpropanamide]", "cellular expression of the ABCA-1 gene": "elevate cellular expression of the ABCA-1 gene"},
      {"compound": "CCc1c(C(=O)N2CCN(C(=O)c3cccc(Br)c3)C(C)C2)cnn1-c1nc(-c2ccc(Cl)cc2)cs1", "note": "(centres unmarked) [[4-(3-bromo-benzoyl)-3-methyl-piperazin-1-yl]-{1-[4-(4-chloro-phenyl)-thiazol-2-yl]-5-ethyl-1H-pyrazol-4-yl}-methanone]", "cellular expression of the ABCA-1 gene": "elevate cellular expression of the ABCA-1 gene"},
      {"compound": "Nc1cc(C(F)(F)F)ccc1N1CCc2ccccc2C1", "note": "[2-(2-1,2,3,4-tetrahydroisoquinolyl)-5-(trifluoromethyl)phenylamine]", "cellular expression of the ABCA-1 gene": "elevate cellular expression of the ABCA-1 gene"},
      {"compound": "O=C(Nc1ccc2c(c1)OCOC2)c1sc2ccccc2c1Cl", "note": "[N-(2H,4H-benzo[e]1,3-dioxan-7-yl)(3-chlorobenzo[b]thiophen-2-yl)carboxamide]", "cellular expression of the ABCA-1 gene": "elevate cellular expression of the ABCA-1 gene"},
      {"compound": "CC(=O)c1ccc(NC(=O)c2ccc(F)cc2)cc1", "note": "[N-(4-acetylphenyl)(4-fluorophenyl)carboxamide]", "cellular expression of the ABCA-1 gene": "elevate cellular expression of the ABCA-1 gene"},
      {"compound": "O=[N+]([O-])c1ccc(OCCOc2ccc([N+](=O)[O-])cc2)cc1", "note": "[1-nitro-4-[2-(4-nitrophenoxy)ethoxy]benzene]", "cellular expression of the ABCA-1 gene": "elevate cellular expression of the ABCA-1 gene"},
      {"compound": "O=C(Nc1nccs1)c1ccc(C(F)(F)F)cc1", "note": "[4-trifluoromethylphenyl-N-(1,3-thiazol-2-yl)carboxamide]", "cellular expression of the ABCA-1 gene": "elevate cellular expression of the ABCA-1 gene"},
      {"compound": "O=C1CSC(NC(=O)c2cccc(F)c2)=N1", "note": "[(3-fluorophenyl)-N-(4-oxo(1,3-thiazolin-2-yl))carboxamide]", "cellular expression of the ABCA-1 gene": "elevate cellular expression of the ABCA-1 gene"},
      {"compound": "CCNC(=O)N(Cc1ccco1)C(C)c1nc2ccccc2c(=O)n1-c1ccc(Br)cc1", "note": "(centres unmarked) [N-{[3-(4-bromophenyl)-4-oxo(3-hydroquinazolin-2-yl)]ethyl}(ethylamino)-N-(2-furylmethyl)carboxamide]", "cellular expression of the ABCA-1 gene": "elevate cellular expression of the ABCA-1 gene"},
      {"compound": "O=C(Nc1ccc2c(c1)OCCO2)c1ccc([N+](=O)[O-])cc1Cl", "note": "[N-(2H,3H-benzo[e]1,4-dioxan-6-yl)(2-chloro-4-nitrophenyl)carboxamide]", "cellular expression of the ABCA-1 gene": "elevate cellular expression of the ABCA-1 gene"},
      {"compound": "COc1cccc(NC(=O)N(CCN(C)C)C(C)c2nc3ccccc3c(=O)n2-c2ccc3ccccc3c2)c1", "note": "(centres unmarked) [N-[2-(dimethylamino)ethyl][(3-methoxyphenyl)amino]-N-[(3-(2-naphthyl)-4-oxo(3-hydroquinazolin-2-yl))ethyl]carboxamide]", "cellular expression of the ABCA-1 gene": "elevate cellular expression of the ABCA-1 gene"},
      {"compound": "CCCCN(C(=O)Nc1ccc(OC)cc1)C(C)c1nc2ccccc2c(=O)n1-c1ccc(Br)cc1", "note": "(centres unmarked) [N-{[3-(4-bromophenyl)-4-oxo(3-hydroquinazolin-2-yl)]ethyl}-N-butyl[(4-methoxyphenyl)amino]carboxamide]", "cellular expression of the ABCA-1 gene": "elevate cellular expression of the ABCA-1 gene"},
      {"compound": "COc1ccc(CCN(Cc2ccc(C(C)(C)C)cc2)C(=O)c2ccco2)cc1OC", "note": "[N-[2-(3,4-dimethoxyphenyl)ethyl]-N-{[4-(tert-butyl)phenyl]methyl}-2-furylcarboxamide]", "cellular expression of the ABCA-1 gene": "elevate cellular expression of the ABCA-1 gene"},
      {"compound": "Cc1ccccc1NC(=O)N(CC(C)C)C(C)c1nc2ccccc2c(=O)n1-c1ccc2ccccc2c1", "note": "(centres unmarked) [[(2-methylphenyl)amino]-N-(2-methylpropyl)-N-[(3-(2-naphthyl)-4-oxo(3-hydroquinazolin-2-yl))ethyl]carboxamide]", "cellular expression of the ABCA-1 gene": "elevate cellular expression of the ABCA-1 gene"},
      {"compound": "Cc1ccc(-n2ncc(N(C)n3cccc3)c(Cl)c2=O)cc1", "note": "[4-chloro-2-(4-methylphenyl)-5-(methylpyrrolylamino)-2-hydropyridazin-3-one]", "cellular expression of the ABCA-1 gene": "elevate cellular expression of the ABCA-1 gene"},
      {"compound": "Nc1ccccc1C(=O)Nc1ccc(Cl)cc1", "note": "[(2-aminophenyl)-N-(4-chlorophenyl)carboxamide]", "cellular expression of the ABCA-1 gene": "elevate cellular expression of the ABCA-1 gene"},
      {"compound": "O=C(Nc1nc2ccccc2s1)c1cccc(F)c1", "note": "[N-benzothiazol-2-yl(3-fluorophenyl)carboxamide]", "cellular expression of the ABCA-1 gene": "elevate cellular expression of the ABCA-1 gene"},
      {"compound": "CCCCNC(=O)Nc1nc2ccccc2s1", "note": "[N-benzothiazol-2-yl(butylamino)carboxamide]", "cellular expression of the ABCA-1 gene": "elevate cellular expression of the ABCA-1 gene"},
      {"compound": "O=C(NNC(=S)Nc1ccccc1Cl)c1ccccc1Cl", "note": "[(2-chlorophenyl)-N-({[(2-chlorophenyl)amino]thioxomethyl}amino)carboxamide]", "cellular expression of the ABCA-1 gene": "elevate cellular expression of the ABCA-1 gene"},
      {"compound": "Cc1ccc(NC(=O)c2ccc3ccccc3c2)cc1C", "note": "[N-(3,4-dimethylphenyl)-2-naphthylcarboxamide]", "cellular expression of the ABCA-1 gene": "elevate cellular expression of the ABCA-1 gene"},
      {"compound": "CNC(=O)C(Sc1nnc(NC(=O)c2ccc(C)cc2)s1)C(C)=O", "note": "(centres unmarked) [N-methyl-2-{5-[(4-methylphenyl)carbonylamino](1,3,4-thiadiazol-2-ylthio)}-3-oxobutanamide]", "cellular expression of the ABCA-1 gene": "elevate cellular expression of the ABCA-1 gene"},
      {"compound": "CC(C)(C)c1ccc(C(=O)Nc2ccc3c(c2)OCCO3)cc1", "note": "[N-(2H,3H-benzo[e]1,4-dioxin-6-yl)[4-(tert-butyl)phenyl]carboxamide]", "cellular expression of the ABCA-1 gene": "elevate cellular expression of the ABCA-1 gene"},
      {"compound": "O=C(Nc1ncc(-c2ccccc2)s1)c1ccc(C(F)(F)F)c(F)c1", "note": "[[3-fluoro-4-(trifluoromethyl)phenyl]-N-(5-phenyl(1,3-thiazol-2-yl))carboxamide]", "cellular expression of the ABCA-1 gene": "elevate cellular expression of the ABCA-1 gene"},
      {"compound": "O=C1CSC(NC(=O)c2ccccc2C(F)(F)F)=N1", "note": "[(2-trifluoromethylphenyl)-N-(4-oxo(1,3-thiazolin-2-yl))carboxamide]", "cellular expression of the ABCA-1 gene": "elevate cellular expression of the ABCA-1 gene"},
      {"compound": "O=C(Nc1ncc(-c2ccccc2)s1)C1CCCC1", "note": "[cyclopentyl-N-(5-phenyl(1,3-thiazol-2-yl))carboxamide]", "cellular expression of the ABCA-1 gene": "elevate cellular expression of the ABCA-1 gene"},
      {"compound": "O=C(Nc1ccc(F)cc1F)c1cc2ccccc2s1", "note": "[benzo[b]thiophen-2-yl-N-(2,4-difluorophenyl)carboxamide]", "cellular expression of the ABCA-1 gene": "elevate cellular expression of the ABCA-1 gene"},
      {"compound": "[((2E)-2-pentyl-3-phenylprop-2-enyl)({1-[(4-butylphenyl)carbonyl](4-piperidyl)}methyl)amino]-N-benzamide", "cellular expression of the ABCA-1 gene": "elevate cellular expression of the ABCA-1 gene"},
      {"compound": "N#Cc1ccc(C(=O)Nc2nc3ccccc3s2)cc1", "note": "[N-benzothiazol-2-yl(4-cyanophenyl)carboxamide]", "cellular expression of the ABCA-1 gene": "elevate cellular expression of the ABCA-1 gene"},
      {"compound": "N#Cc1c(C(F)(F)F)cc(-c2cccs2)nc1SCC(=O)Nc1nc2ccccc2s1", "note": "[N-benzothiazol-2-yl-2-[3-cyano-6-(2-thienyl)-4-(trifluoromethyl)(2-pyridylthio)]acetamide]", "cellular expression of the ABCA-1 gene": "elevate cellular expression of the ABCA-1 gene"},
      {"compound": "Cc1ccc2nc3c(nc2c1)-c1ccccc1C3=O", "note": "[7-methylindeno[2,3-b]quinoxalin-1′-one]", "cellular expression of the ABCA-1 gene": "elevate cellular expression of the ABCA-1 gene"},
      {"compound": "CCOC(=O)C1=C(NCCc2ccccc2)CCN(C(=O)c2ccc(C(C)(C)C)cc2)C1", "note": "[ethyl 1-[(4-t-butylphenyl)carbonyl]-4-[(2-phenylethyl)amino]-1,2,5,6-tetrahydropyridine-3-carboxylate]", "cellular expression of the ABCA-1 gene": "elevate cellular expression of the ABCA-1 gene"},
      {"compound": "COc1ccc(C(=O)Nc2nc(-c3ccccc3)cs2)cc1", "note": "[(4-methoxyphenyl)-N-(4-phenyl(1,3-thiazol-2-yl))carboxamide]", "cellular expression of the ABCA-1 gene": "elevate cellular expression of the ABCA-1 gene"}
    ]}
  ]
}
